pEC50: −log10 of the molar value.
Legend:
Apelin receptor [1] = target: T1, Apelin receptor (Homo sapiens, UniProt P35414); assay: Agonist activity at human APJ receptor assessed as effect on cAMP accumulation by cAMP-Glo assay; assay type: functional
T1 sequence (P35414 whole entry): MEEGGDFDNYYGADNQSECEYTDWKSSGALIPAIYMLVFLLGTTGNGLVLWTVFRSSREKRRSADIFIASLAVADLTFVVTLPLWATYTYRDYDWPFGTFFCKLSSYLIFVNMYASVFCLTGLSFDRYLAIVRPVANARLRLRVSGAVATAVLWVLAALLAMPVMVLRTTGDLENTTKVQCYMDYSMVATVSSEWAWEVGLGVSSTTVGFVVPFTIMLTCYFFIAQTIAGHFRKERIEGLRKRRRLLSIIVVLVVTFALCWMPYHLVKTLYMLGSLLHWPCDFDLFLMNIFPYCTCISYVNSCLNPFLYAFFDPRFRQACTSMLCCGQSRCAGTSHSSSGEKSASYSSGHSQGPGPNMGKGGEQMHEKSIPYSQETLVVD

[2] = Metabolic stability in mouse liver microsomes assessed as parent compound remaining incubated for 10 mins in presence of NADPH; assay type: ADME, Microsome; conditions: read-out: Stabilty
Apelin receptor [3] = target: T2, Apelin receptor (Mus musculus, UniProt Q9WV08); assay: Agonist activity at mouse APJ receptor assessed as effect on cAMP accumulation by cAMP-Glo assay
T2 sequence (Q9WV08 whole entry): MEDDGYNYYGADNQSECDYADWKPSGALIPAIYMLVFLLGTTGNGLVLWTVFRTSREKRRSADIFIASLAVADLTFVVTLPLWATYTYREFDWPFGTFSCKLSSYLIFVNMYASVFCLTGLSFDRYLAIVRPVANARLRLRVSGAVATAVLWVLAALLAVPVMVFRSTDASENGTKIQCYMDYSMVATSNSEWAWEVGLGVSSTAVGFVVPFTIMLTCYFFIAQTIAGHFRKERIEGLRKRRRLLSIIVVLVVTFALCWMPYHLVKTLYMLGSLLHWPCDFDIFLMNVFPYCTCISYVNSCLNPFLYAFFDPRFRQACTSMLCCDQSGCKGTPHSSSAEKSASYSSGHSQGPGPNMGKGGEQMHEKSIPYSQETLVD

[4] = Metabolic stability in human liver microsomes assessed as parent compound remaining incubated for 10 mins in presence of NADPH; assay type: ADME, Microsome; conditions: read-out: Stabilty
Apelin receptor [5] = target: T3, Apelin receptor (Rattus norvegicus, UniProt Q9JHG3); assay: Agonist activity at rat APJ receptor assessed as effect on cAMP accumulation by cAMP-Glo assay; assay type: functional
T3 sequence (Q9JHG3 whole entry): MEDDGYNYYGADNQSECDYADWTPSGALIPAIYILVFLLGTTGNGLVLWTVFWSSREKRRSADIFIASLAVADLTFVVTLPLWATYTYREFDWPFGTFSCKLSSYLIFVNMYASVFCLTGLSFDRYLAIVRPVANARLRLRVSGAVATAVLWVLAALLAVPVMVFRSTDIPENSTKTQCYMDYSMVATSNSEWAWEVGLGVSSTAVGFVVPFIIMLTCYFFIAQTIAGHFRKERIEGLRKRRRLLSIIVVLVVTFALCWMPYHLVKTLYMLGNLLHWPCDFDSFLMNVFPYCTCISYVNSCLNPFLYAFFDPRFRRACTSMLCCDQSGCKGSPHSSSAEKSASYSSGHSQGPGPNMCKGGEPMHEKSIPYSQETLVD

[6] = Metabolic stability in rat liver microsomes assessed as parent compound remaining incubated for 10 mins in presence of NADPH; assay type: ADME, Microsome; conditions: read-out: Stabilty
[7] = Permeability of the compound at pH 5.5 by PAMPA; assay type: ADME; conditions: read-out: permeability
[8] = Permeability of the compound at pH 7.4 by PAMPA; assay type: ADME; conditions: read-out: permeability
[9] = Cmax in rat at 1 mg/kg, po; assay type: ADME, organism-based; parameters: route oral, dose 1 mg/kg; conditions: in vivo
Rattus norvegicus [10] = assay: Hemodynamic activity in Sprague-Dawley rat model of acute pressure-volume loop model assessed as increase in dP/dT at 10 mg/kg/min administered as iv infusion for 15 mins relative to control; assay type: functional; conditions: 0.25 h
[11] = Plasma concentration in Sprague-Dawley rat model of acute pressure-volume loop model at 10 mg/kg/min administered as iv infusion for 5 mins; assay type: ADME, organism-based
in vivo [12] = conditions: rat, po, 1 mg/kg
in vivo [13] = conditions: cynomolgus monkey, po, 3 mg/kg
Description: AUC (0 to infinity) in cynomolgus monkey at 3 mg/kg, po

[14] = Plasma concentration in Sprague-Dawley rat model of acute pressure-volume loop model assessed as free fraction at 10 mg/kg/min administered as iv infusion for 5 mins; assay type: ADME, organism-based; conditions: in vivo
[15] = Toxicity activity in Sprague-Dawley rat model of acute pressure-volume loop model assessed as change in heart rate at 10 mg/kg/min administered as iv infusion for 15 mins relative to control; assay type: organism-based; conditions: in vivo, 0.25 h
[16] = Plasma concentration in Sprague-Dawley rat model of acute pressure-volume loop model at 10 mg/kg/min administered as iv infusion for 15 mins; assay type: ADME, organism-based
Rattus norvegicus [17] = assay: Hemodynamic activity in Sprague-Dawley rat model of acute pressure-volume loop model assessed as increase in cardiac output at 10 mg/kg/min administered as iv infusion for 15 mins relative to control; assay type: functional; conditions: 0.25 h
[18] = Plasma concentration in Sprague-Dawley rat model of acute pressure-volume loop model assessed as free fraction at 10 mg/kg/min administered as iv infusion for 15 mins; assay type: ADME, organism-based; conditions: in vivo, 0.25 h
[19] = Cmax in cynomolgus monkey at 3 mg/kg, po; assay type: ADME, organism-based, Macaca fascicularis; parameters: route oral, dose 3 mg/kg; conditions: in vivo
[20] = Toxicity activity in Sprague-Dawley rat model of acute pressure-volume loop model assessed as change in blood pressure at 10 mg/kg/min administered as iv infusion for 15 mins relative to control; assay type: organism-based; conditions: in vivo, 0.25 h
[21] = Half life in rat at 1 mg/kg, po; assay type: ADME, organism-based; conditions: in vivo
[22] = AUC (0 to 24 hrs) in rat at 1 mg/kg, po; assay type: ADME, organism-based; parameters: time < 24 hr, route oral, dose 1 mg/kg; conditions: in vivo

| SMILES | pEC50 (Apelin receptor [1]) | remaining at 10 min [2] [%] | pEC50 (Apelin receptor [3]) | remaining at 10 min [4] [%] | pEC50 (Apelin receptor [5]) | remaining at 10 min [6] [%] | Papp [7] [×10⁻⁶ cm/s] | Papp [8] [×10⁻⁶ cm/s] | also measured |
| --- | --- | --- | --- | --- | --- | --- | --- | --- | --- |
| CCCCc1[nH]c(=O)c(S(=O)(=O)c2ccc(-c3cccnc3OC)cc2)c(O)c1-c1c(OC)cccc1OC | 10.52 | 24 | 9.70 | 72 | 9.15 | – | – | – | – |
| CCCCc1[nH]c(=O)c(S(=O)(=O)c2ccc(-n3ccccc3=O)cc2)c(O)c1-c1c(OC)cccc1OC | 9.30 | 75 | 8.70 | 100 | 8.52 | 100 | 17.7 | 0.5 | – |
| COc1cccc(OC)c1-n1c(CCC(C)C)nc(=O)c(S(=O)(=O)c2ccc(-c3ccc(F)nc3)cc2)c1O | – | 31 | – | 89 | 10.52 | 1 | 24.6 | 3.5 | – |
| COc1cccc(OC)c1-n1c(-c2cncc(C)c2)nc(=O)c(S(=O)(=O)c2ccc(C3CC3)cc2)c1O | 8.30 | – | 8.30 | – | 8.00 | – | – | – | – |
| COc1cccc(OC)c1-n1c(C2CCCC2)nc(=O)c(S(=O)(=O)c2ccc(C3CC3)cc2)c1O | 9.52 | – | 9.40 | – | 8.82 | – | – | – | – |
| CCCCc1nc(=O)c(S(=O)(=O)c2ccc(C)cc2)c(O)n1-c1c(OC)cccc1OC | 9.70 | 80 | 9.52 | 94 | 9.52 | 74 | 24.3 | 0.7 | – |
| CCCCc1[nH]c(=O)c(S(=O)(=O)c2ccc(-c3ccc(F)cc3)cc2)c(O)c1-c1c(OC)cccc1OC | 7.77 | – | 7.47 | – | 7.14 | – | – | – | – |
| CCCCc1[nH]c(=O)c(S(=O)(=O)c2ccc(-n3cc(Cl)ccc3=O)cc2)c(O)c1-c1c(OC)cccc1OC | 10.52 | 64 | 10.00 | 97 | 9.70 | 72 | 28.5 | 2.2 | – |
| CCCCc1[nH]c(=O)c(S(=O)(=O)c2ccc(-c3ccc(F)nc3)cc2)c(O)c1-c1c(OC)cccc1OC | 9.15 | – | 8.30 | – | 7.92 | – | – | – | – |
| CCCCc1nc(=O)c(S(=O)(=O)c2ccc(-c3ccc(F)cc3)cc2)c(O)n1-c1c(OC)cccc1OC | 10.10 | 47 | 10.00 | 100 | 10.70 | 5 | 41.8 | 13.2 | – |
| CCCCc1nc(=O)c(S(=O)(=O)c2ccccc2)c(O)n1-c1c(OC)cccc1OC | 9.30 | 79 | 9.00 | 89 | 9.05 | 93 | 14.1 | 0.15 | – |

Further lines, with some results ahead:

| pEC50 (Apelin receptor [1]) | remaining at 10 min [2] [%] | pEC50 (Apelin receptor [3]) | remaining at 10 min [4] [%] | pEC50 (Apelin receptor [5]) | remaining at 10 min [6] [%] | Papp [7] [×10⁻⁶ cm/s] | Papp [8] [×10⁻⁶ cm/s] | SMILES | also measured |
| --- | --- | --- | --- | --- | --- | --- | --- | --- | --- |
| 10.30 | 100 | 10.70 | 94 | 11.00 | 74 | 8.3 | – | CCCCc1nc(=O)c(S(=O)(=O)c2ccc(-n3cc(Cl)ccc3=O)cc2)c(O)n1-c1c(OC)cccc1OC | – |
| 11.00 | 98 | 10.52 | 97 | 10.70 | 27 | 45.6 | – | CCCCc1nc(=O)c(S(=O)(=O)c2ccc(-c3cccnc3OC)cc2)c(O)n1-c1c(OC)cccc1OC | – |
| 11.70 | 69 | 10.70 | 100 | 11.40 | 2 | 51.6 | 2.4 | CCCCc1nc(=O)c(S(=O)(=O)c2ccc(-c3ccc(F)nc3)cc2)c(O)n1-c1c(OC)cccc1OC | – |
| 10.40 | 39 | 10.00 | 80 | 9.40 | 57 | 35.5 | 7.6 | CCCCc1[nH]c(=O)c(S(=O)(=O)c2ccc(-c3ccncc3C)cc2)c(O)c1-c1c(OC)cccc1OC | – |
| 10.70 | 93 | 10.52 | 95 | 10.22 | 59 | 61.5 | 2.2 | CCCCc1nc(=O)c(S(=O)(=O)c2ccc(C3CC3)cc2)c(O)n1-c1c(OC)cccc1OC | Cmax [9]: 6200 nM; Activity (Rattus norvegicus [10]): 14%; concentration at 5 min [11]: 2600 nM; AUC(0-inf) (in vivo [12]): 3.9 µM·h; AUC(0-inf) (in vivo [13]): 4.7 µM·h; Cp(f) [14]: 5.2 nM; Activity [15]: Non-Toxic; concentration at 0.25 h [16]: 5800 nM; Activity (Rattus norvegicus [17]): 11%; Cp(f) [18]: 12 nM; Cmax [19]: 1500 nM; Activity [20]: Non-Toxic; half-life [21]: 5.6 h |
| 10.70 | 63 | 10.52 | 87 | – | 83 | 1.2 | 0.1 | CCCCc1nc(=O)c(S(=O)(=O)c2ccc(-n3ccccc3=O)cc2)c(O)n1-c1c(OC)cccc1OC | – |
| 10.52 | 72 | 10.40 | 84 | 10.40 | 72 | 18.3 | 1.1 | CCCCc1nc(=O)c(S(=O)(=O)c2ccc(-c3ccnc(NC(=O)C4CC4)c3)cc2)c(O)n1-c1c(OC)cccc1OC | Cmax [9]: 400 nM; AUC(0-t) at 24 h [22]: 0.6 µM·h; half-life [21]: 1.3 h |
| 10.40 | 57 | 10.30 | 88 | 10.30 | 3 | 20.2 | 0.6 | CCCCc1nc(=O)c(S(=O)(=O)c2ccc(-c3cccnc3)cc2)c(O)n1-c1c(OC)cccc1OC | – |
| 11.00 | 90 | 10.52 | 84 | 10.70 | 30 | 7.5 | 0.4 | COc1cccc(OC)c1-n1c(COC(C)C)nc(=O)c(S(=O)(=O)c2ccc(-c3ccc(F)nc3)cc2)c1O | – |
| – | – | 10.57 | – | – | – | – | – | CCOCc1nc(O)c(-c2nnc(Cc3ccc(Cl)cn3)o2)c(O)c1-c1c(OC)cccc1OC [BMS-986224] | Cmax [9]: 5300 nM; AUC(0-t) at 24 h [22]: 16 µM·h; AUC(0-inf) (in vivo [12]): 15.5 µM·h; half-life [21]: 2.3 h |
